Results as given in patent US20220096364A1, “Oral Care Compositions Comprising Prenylated Flavonoid” (The Procter & Gamble Company, priority 2020, published 2022).
In brackets after ≈: the same amount, converted by molar mass.

Assays:
[1] = tested on: Streptococcus mutans (ATCC strain 25175); assay: Minimum inhibitory concentration (MIC) against Streptococcus mutans, 2-fold serial dilution in broth, visual scoring; format: cell-based; settings: S. mutans ATCC 25175, TSB, overnight at 35° C., anaerobic chamber; for MIC: Streptococcus mutans, ATCC25175
Procedure: (§1) The minimum inhibitory concentration (MIC) values against Streptococcus mutans for a collection of prenylated flavonoids of varying octanol/water partition coefficients (Log P) were determined using a conventional protocol. A culture of Streptococcus mutans (S. mutans, ATCC strain 25175) was grown overnight (18-24 hour incubation time at 35° C.) in a Tryptone Soy Broth (TSB. BD, Becton, Dickinson and Company, Sparks, Md., USA) and adjusted to deliver a target count of between 2×10^7 and 2×10^8 CFU/mL using a turbidimetric target density at 600 nm. The inoculum was then diluted 1/1000 in TSB for S. mutans. A volume of 100 μL of inoculum was added to a row of wells (12 wells per row) of a 96-well plate for which the MIC value of a test compound would be determined. An additional 95 μL of inoculum was added to the first well in that row. For each compounded tested obtained as a pure isolate in DMSO (Phytolab GmbH, Germany), 5 μL of a stock solution (2 mg compound/mL DMSO) was also added to the first well in that row. Then, a 2-fold serial dilution was performed where 100 μL of the first well was transferred to the second well in a row and mixed with 100 μL of growth medium. This was repeated until the last well of a row was reached. In the last well, 100 μL was discarded such that all wells contained 100 μL. The plates were covered and incubated overnight at 35° C. in an anaerobic chamber (85/10/5; N2, CO2, H2) without agitation. The procedure was repeated row by row until each compound was serially diluted. Multiple plates were used if necessary. […] The MIC value was determined for each compounded tested in a row by identifying the well with the lowest concentration of test compound in the serial dilution necessary to maintain a clear well.

[2] = tested on: Porphyromonas gingivalis (ATCC strain 33277); assay: Minimum inhibitory concentration (MIC) against Porphyromonas gingivalis, 2-fold serial dilution in Minimal Medium+, visual scoring; format: cell-based; settings: P. gingivalis ATCC 33277, Minimal Medium+, overnight at 35° C., anaerobic chamber; for MIC: Porphyromonas gingivalis, ATCC33277
Procedure: The minimum inhibitory concentration (MIC) values against Porphyromonas gingivalis for a collection of prenylated flavonoids of varying octanol/water partition coefficients (Log P) were determined using a conventional protocol. A culture of Porphyromonas gingivalis (P. gingivalis, ATCC strain 33277) from glycerol stock was grown with a gas mix of 85% nitrogen, 10% CO2, and 5% hydrogen for 48-72 hours at 33° C. by inoculating a large loopful in MTGE (Anaerobe Systems, Morgan Hill, Calif., USA). Following incubation in MTGE, the optical density was adjusted to deliver a target count of between 2×10^7 and 2×10^8 CFU/mL using a turbidimetric target density at 600 nm using P. gingivalis Minimal Medium+. Minimal Medium+ is a growth medium containing 10 mM monosodium phosphate, 10 mM potassium chloride, 10 mM magnesium chloride, 7.7 μM hemin, 2.9 μM menadione, 30 g/L alphaglobuline from bovine blood, 250 μM calcium chloride, 100 mL/L fetal bovine serum, adjusted to pH 7.0 with NaOH. It is made by mixing alphaglobuline in water, adding salts, adjusting to pH 7.0 with NaOH, filtering using […] filter, then adding hemin, menadione, and fetal bovine serum.
as §1, with “The” for “The minimum inhibitory concentration (MIC) values against Streptococcus mutans for a collection of prenylated flavonoids of varying octanol/water partition coefficients (Log P) were determined using a conventional protocol. A culture of Streptococcus mutans (S. mutans, ATCC strain 25175) was grown overnight (18-24 hour incubation time at 35° C.) in a Tryptone Soy Broth (TSB. BD, Becton, Dickinson and Company, Sparks, Md., USA) and adjusted to deliver a target count of between 2×10^7 and 2×10^8 CFU/mL using a turbidimetric target density at 600 nm. The”, “1/50” for “1/1000”, “Minimal Medium+” for “TSB”, “P. gingivalis.” for “S. mutans.”

Row | SMILES | MIC [1] [µg/mL] | MIC [2] [µg/mL] | MIC (S. mutans) [1] [ppm] | MIC (P. gingivalis) [2] [ppm]
1 | CC(C)=CCc1cc([C@@H]2CC(=O)c3ccc(O)c(CC=C(C)C)c3O2)cc(CC=C(C)C)c1O [(−)-Sophoranone] | – | – | 125 | 50
2 | CC(C)=CCc1cc(C(=O)/C=C/c2ccc(O)cc2)c(O)cc1O [Bavachalcone] | – | – | 3.125 | 12.5
3 | COc1cc(O)c(C(=O)[C@@H]2[C@H](CC=C(C)C)C(C)=CC[C@H]2c2ccccc2)c(O)c1 [Panduratin A] | – | – | 0.7813 | 0.488
4 | CC(C)=CCC/C(C)=C/Cc1cc(-c2coc3cc(O)ccc3c2=O)ccc1O [Corylifol A] | – | – | >500 | 15.625
5 | C=C(C)[C@H](CC=C(C)C)Cc1c(O)cc(O)c2c1O[C@H](c1ccc(O)cc1O)CC2=O [Sophoraflavanone G] | – | – | 1.5625 | 12.5
6 | CC(C)=CCc1c(O)ccc(C(=O)/C=C/c2ccc(O)cc2)c1O [Isobavachalcone] | 1.56 (≈ 4.82 µM) | 12.5 (≈ 38.5 µM) | – | –
7 | CC(C)=CCc1cc2c(cc1O)O[C@H](c1ccc(O)cc1)CC2=O [Bavachin] | > 500 | 31.2 (≈ 96.3 µM) | – | –
8 | C=C(C)[C@H](CC=C(C)C)Cc1c(O)cc(OC)c2c1O[C@H](c1ccc(O)cc1O)CC2=O [Kurarinone] | 3.91 (≈ 8.91 µM) | 15.6 (≈ 35.6 µM) | – | –
9 | CC(C)=CCc1c(O)cc2c(c1O)C(=O)C[C@@H](c1ccc(O)cc1)O2 [6-Prenylnaringenin] | 15.6 (≈ 45.9 µM) | 25 (≈ 73.4 µM) | – | –
10 | CC(C)=CCc1c(-c2ccc(O)cc2O)oc2c([C@H]3C=C(C)C[C@@H](c4ccc(O)cc4O)[C@@H]3C(=O)c3ccc(O)cc3O)c(O)cc(O)c2c1=O [Kuwanon G] | – | – | 3.125 | 125

Second part, the compound after the results:

Row | MIC [1] [µg/mL] | MIC [2] [µg/mL] | MIC (S. mutans) [1] [ppm] | MIC (P. gingivalis) [2] [ppm] | SMILES
11 | > 500 | 50 (≈ 73.9 µM) | – | – | COc1ccc(-c2oc3c(CC=C(C)C)c(O[C@@H]4O[C@H](CO)[C@@H](O)[C@H](O)[C@H]4O)cc(O)c3c(=O)c2O[C@@H]2O[C@@H](C)[C@H](O)[C@@H](O)[C@H]2O)cc1 [Icariin]
12 | 12.5 (≈ 36.7 µM) | 50 (≈ 147 µM) | – | – | CC(C)=CCc1c(O)cc(O)c2c1O[C@H](c1ccc(O)cc1)CC2=O [8-Prenylnaringenin]
13 | 3.12 (≈ 8.82 µM) | 12.5 (≈ 35.3 µM) | – | – | COc1cc(O)c(CC=C(C)C)c(O)c1C(=O)/C=C/c1ccc(O)cc1 [Xanthohumol]
14 | > 500 | > 500 | – | – | COc1ccc(-c2oc3c(CC=C(C)C)c(O)cc(O)c3c(=O)c2O)cc1 [Icaritin]
15 | – | – | 0.9766 | 7.8125 | CC(C)=CCc1c(-c2ccc(O)cc2O)oc2c(CC=C(C)C)c(O)cc(O)c2c1=O [Kuwanon C]
16 | 50 (≈ 141 µM) | 25 (≈ 70.5 µM) | – | – | COc1cc(O)c(CC=C(C)C)c2c1C(=O)CC(c1ccc(O)cc1)O2 (stereo not shown) [Isoxanthohumol]
17 | 12.5 (≈ 38.8 µM) | 31.2 (≈ 96.9 µM) | – | – | CC(C)=CCc1cc(-c2coc3cc(O)ccc3c2=O)ccc1O [Neobavaisoflavone]
